# Source: the supplement of paper PMC13380429
# ± gives the standard deviation of the averaged measurements.
# Key:
# Settings in all cases: 72 h
# Caco-2 [1] = assay: cell viability relative to DMSO; higher = less toxic
# Calu-3 [2] = assay: as above
# HepG2 [3] = assay: as above
# U2OS [4] = assay: as above
# Vero E6 [5] = assay: as above
# Caco-2 [6] = assay: relative viability EC50 (midpoint between 100% and the lowest measured viability); higher = less toxic
# Calu-3 [7] = assay: as above
# HepG2 [8] = assay: as above
# U2OS [9] = assay: as above
# Vero E6 [10] = assay: as above
# Caco-2 [11] = assay: drug sensitivity score (DSS) for viability; higher = more toxic; extreme values may be limits of the assay
# Calu-3 [12] = assay: as above
# HepG2 [13] = assay: as above
# U2OS [14] = assay: as above
# Vero E6 [15] = assay: as above
Compound,cell viability (Caco-2 [1]; 1 nM) [%],cell viability (Caco-2 [1]; 10 nM) [%],cell viability (Caco-2 [1]; 100 nM) [%],cell viability (Caco-2 [1]; 1000 nM) [%],cell viability (Caco-2 [1]; 10000 nM) [%],cell viability (Calu-3 [2]; 1 nM) [%],cell viability (Calu-3 [2]; 10 nM) [%],cell viability (Calu-3 [2]; 100 nM) [%],cell viability (Calu-3 [2]; 1000 nM) [%],cell viability (Calu-3 [2]; 10000 nM) [%],cell viability (HepG2 [3]; 1 nM) [%],cell viability (HepG2 [3]; 10 nM) [%],cell viability (HepG2 [3]; 100 nM) [%],cell viability (HepG2 [3]; 1000 nM) [%],cell viability (HepG2 [3]; 10000 nM) [%],cell viability (U2OS [4]; 1 nM) [%],cell viability (U2OS [4]; 10 nM) [%],cell viability (U2OS [4]; 100 nM) [%],cell viability (U2OS [4]; 1000 nM) [%],cell viability (U2OS [4]; 10000 nM) [%],cell viability (Vero E6 [5]; 1 nM) [%],cell viability (Vero E6 [5]; 10 nM) [%],cell viability (Vero E6 [5]; 100 nM) [%],cell viability (Vero E6 [5]; 1000 nM) [%],cell viability (Vero E6 [5]; 10000 nM) [%],relative viability EC50 (Caco-2 [6]) [µM],relative viability EC50 (Calu-3 [7]) [µM],relative viability EC50 (HepG2 [8]) [µM],relative viability EC50 (U2OS [9]) [µM],relative viability EC50 (Vero E6 [10]) [µM],drug sensitivity score (Caco-2 [11]),drug sensitivity score (Calu-3 [12]),drug sensitivity score (HepG2 [13]),drug sensitivity score (U2OS [14]),drug sensitivity score (Vero E6 [15])
O=C(/C=C/c1cccc(S(=O)(=O)Nc2ccccc2)c1)NO [belinostat],87.9,96.6,89.3,21.6,0.6,90.7,89.2,86.6,41,9.9,98.5,98.7,87.6,22.4,0.3,94.6,94.9,81.9,16,0.9,93.2,92.9,83.4,8.4,0.1,0.412,0.506,0.406,0.29,0.252,15.9,13.1,16,17.7,18.8
CC(=O)O[C@@]12CO[C@@H]1C[C@H](O)[C@@]1(C)C(=O)[C@H](O)C3=C(C)[C@@H](O)C[C@@](O)([C@@H](OC(=O)c4ccccc4)[C@H]21)C3(C)C [10-deacetylbaccatin],102,110,92.6,99,102,105,95.6,94.9,97.4,108,93.9,105,97.3,108,108,98.4,99.3,104,102,107,97.6,96.1,95.6,95.1,106,> 10,> 10,> 10,> 10,> 10,0,0,0,0,0
Cn1cnc(N)c2ncnc1-2 [3-methyladenine],99.3,94.8,108,102,100,104,101,95.2,106,106,103,102,89.6,101,90.5,103,97.1,98.3,97.9,99.8,95.1,103,102,96.6,96.5,> 10,> 10,> 10,> 10,> 10,0,0,0,0,0
Clc1ccccc1C(c1ccccc1)(c1ccccc1)n1cccn1 [TRAM-34],95.8,89,99,99,90.1,104,104,106,93.4,103,107,96.5,93.5,98.4,104,97.6,98.4,101,99.2,99,104,111,97.6,104,98.9,> 10,> 10,> 10,> 10,> 10,0,0,0,0,0
CC(C)(Oc1ccc(C2CC2(Cl)Cl)cc1)C(=O)O (stereo not given) [ciprofibrate],101,93.5,103,86.7,102,104,98.1,96.5,93.7,95.9,96.3,106,99.2,96.1,100,93.2,98.3,99.6,94.7,91.7,94.1,94.4,93.4,97.2,108,> 10,> 10,> 10,> 10,> 10,0,0,0,0,0
CC(C)NCC(O)COc1cccc2[nH]ccc12 (stereo not given) [pindolol],117,100,122,101,90.9,98.8 ± 1.1,97 ± 6.8,100.4 ± 0.28,103.8 ± 0.92,102 ± 15,111 ± 10,90 ± 12,105 ± 0.14,85.5 ± 29,103 ± 8.6,103 ± 5,101 ± 2.3,99.5 ± 3.3,102.5 ± 0.35,103 ± 0.14,99.2 ± 1.3,95.8 ± 1.4,96.1 ± 9.6,98.8 ± 2.1,95 ± 11,> 10,> 10,> 10,> 10,> 10,0,0,0,0,0
COC(=O)C1=C(C)NC(C)=C(C(=O)OC/C=C/c2ccccc2)C1c1cccc([N+](=O)[O-])c1 (stereo not given) [pranidipine],101,80,97,91.5,92.6,103,101,99.7,91.7,91.8,97.1,102,107,103,95.1,98.1,93,99.6,95.5,94.8,93.8,103,83.1,95.1,96.9,> 10,> 10,> 10,> 10,> 10,0,0,0,0,0
CC(=O)Nc1ccc(C(=O)NC(C)(C)C)cc1 [CPI-1189],99.9,99.7,104,95.7,99.9,108,105,108,114,96.6,91.5,95.3,96.6,97.4,94.2,100,93.3,98.2,97,98.7,96,99.6,97.8,97.2,91.8,> 10,> 10,> 10,> 10,> 10,0,0,0,0,0
Clc1cccc(N2CCNCC2)c1 [mCPP],88.9,97,96.1,92.4,98.4,91.4,102,104,104,100,97.7,95.3,96,100,105,99.8,93.3,103,97.1,93.9,88.9,103,96.7,100,106,> 10,> 10,> 10,> 10,> 10,0,0,0,0,0
Cc1cc(/C=C2\SC(=O)N(c3ccccc3)C2=O)c(C)n1-c1cccnc1 [iCRT-14],107,107,102,96.8,89,101,88.7,100,104,107,96.7,102,93.4,94.3,76.2,97,96.8,102,95.7,96.4,105,102,96.8,99.8,89.8,> 10,> 10,> 10,> 10,> 10,0.1,0,1.4,0,0
CC(=N)NCc1cccc(CN)c1 [1400W],112,92.6,103,92.2,103,102,93,91.2,108,109,102,100,105,94.4,97,103,94.6,104,98,104,103,98.3,99.9,102,97.7,> 10,> 10,> 10,> 10,> 10,0,0,0,0,0
CC(C)c1cccc2c(-c3ccccc3)cc(-c3ccc(-c4ccc(C(=O)O)cc4)[nH]3)nc12,89.3,102,96.5,91.7,76.1,103,96.2,99.2,117,103,94.8,87.1,100,98.8,87.6,97.5,101,98.9,103,96.9,95.6,94,86.7,83.9,91.3,> 10,> 10,> 10,> 10,> 10,1.5,0,0,0,1.4
O=C(O)CCCc1ccc(N(CCCl)CCCl)cc1 [chlorambucil],94.9,90.6,98.2,91.8,90.2,93,102,94.5,101,97.6,103,100,104,101,83.9,104,99.7,101,97.3,105,102,102,100,98.2,97.9,> 10,> 10,> 10,> 10,> 10,0,0,0.3,0,0
CCOC(=O)c1ccc(-c2ccc(OC(=O)N(C)Cc3cccc(-c4ccncc4)c3)cc2)cc1 [WWL-113],97.4,102,105,96.5,92.8,108,93.6,108,99.1,106,100,106,96.5,107,38.1,104,97.3,98.9,95.9,97.8,94.7,98.4,92.5,99.6,91.4,> 10,> 10,3.7,> 10,> 10,0,0,2.9,0,0
